Source: patent US20240399142A1, “Methods Of Using Alternating Electric Fields And Checkpoint Inhibitors” (NOVOCURE GMBH, priority 2023, published 2024)

Test system: patients with metastatic NSCLC progressing on or after platinum therapy
Assay: LUNAR phase 3 randomized study: overall survival, progression-free survival, radiological response
Method: LUNAR was a prospective, phase 3, randomized, open-label, parallel study (EF-24; NCT02973789) of TTFields (150 kHz) therapy concomitant with standard-of-care systemic therapy (docetaxel or investigator's choice immune checkpoint inhibitor) in patients with metastatic NSCLC progressing on or after platinum therapy. LUNAR was conducted at 124 sites across 17 countries in North America, Europe, and Asia (Table Si) between February 2017 and November 2021.
Eligible participants were adults (≥22 years of age) with a histological or cytological diagnosis of metastatic NSCLC that had shown radiological progression while on or after platinum-based systemic therapy (prior ICI permitted). Other than maintenance therapy, the most recent systemic therapy administered for advanced NSCLC was platinum-therapy. […]
Eligible patients were randomly assigned 1:1 (within 28 days of providing informed consent) to receive TTFields therapy to the thorax concomitant with investigator's choice of standard therapy (an immune checkpoint inhibitor [nivolumab, pembrolizumab, or atezolizumab] or docetaxel). Randomization was determined centrally using variable blocked randomization and an IxRS system, and stratified by tumor histology, treatment (docetaxel or an immune checkpoint inhibitor), and region (North America, Western Europe/Israel, and Eastern Europe). […]

CC(=O)O[C@@]12CO[C@@H]1C[C@H](O)[C@@]1(C)C(=O)[C@H](O)C3=C(C)[C@@H](OC(=O)[C@H](O)[C@@H](NC(=O)OC(C)(C)C)c4ccccc4)C[C@@](O)([C@@H](OC(=O)c4ccccc4)[C@H]21)C3(C)C [Docetaxel, docetaxel]
one-year survival rate (docetaxel subgroup): 39.4%
median overall survival (subgroup receiving docetaxel): 8.9 months
